Data reported in US20260060982A1, “USE OF BTK INHIBITOR AND SINGLE-DOSE DRUG” (HUBEI BIO-PHARMACEUTICAL INDUSTRIAL TECHNOLOGICAL INSTITUTE …, priority 2023, published 2026).

Key:
[1] = tested on: PG-PS-induced arthritis in Lewis rats; test: PG-PS-induced arthritis model in rats; format: in vivo
Description: Intraperitoneal injection of PG-PS suspension can effectively induce chronic, erosive, and relapsing symptoms similar to human rheumatoid arthritis in rats, and is often used to evaluate the in vivo effectiveness of medicaments in the early discovery of arthritis medicaments. The specific steps were as follows:
On day 0, Lewis rats were randomly divided into 6 groups, with 5 rats in the first group and 10 rats in each group from the second group to the sixth group. All rats in the second to sixth groups were intraperitoneally injected with PG-PS (Lee Laboratories, PG-PS 10S, 5.1 mg/ml Rhamnose) to establish the model. The PG-PS injection dose v=15 μg/g×bw (rat weight, in g)/5.1 μg/μL.
On day 1, the model rats (the second to sixth groups) were randomly redivided into 5 groups, with 10 rats in each group. The animals in each group were given the corresponding medicament or vehicle by gavage once a day until the 29th day. […] Clinical observations and clinical scoring were performed daily during the administration period. The ankle diameter of each animal after modeling was subtracted from its ankle diameter before modeling to obtain the ankle diameter difference (delta ankle diameter). The area under the curve (AUC) was calculated by analyzing the ankle diameter difference of each animal in each group. The inhibition rate of each administration group relative to the blank vehicle control was calculated by the average AUC between groups.
Pathology: On day 30, the rats were euthanized. The two hind limbs of rats were stained with toluidine blue to evaluate the degree of joint damage in terms of inflammatory cell lesions, pannus formation, cartilage damage, bone resorption, and periosteal new bone formation, and the severity was scored on a scale from 0 to 7.

[2] = tested on: collagen-induced arthritis in DBA/1 mice; test: Collagen-induced arthritis (CIA) model in mice; format: in vivo
Experimental: Clinical symptoms of arthritis were induced in mice by injecting collagen emulsion into the tail of mice. The specific steps were as follows:
DBA/1 mice were randomly divided into 6 groups, with 10 mice in each group except the blank control group (5 mice). […] The day of the first immunization was recorded as day 0, and the subsequent days were marked in sequence. DBA/1 mice were anesthetized with isoflurane and injected subcutaneously with 50 μl of the prepared collagen emulsion (containing 200 μg of CII) at the tail (2 cm to 3 cm from the base of the tail). On day 21, the same volume of collagen emulsion was injected into the tail in the same way.
On day 28, when the average clinical score reached 1 to 2, the mice were randomly redivided into 4 treatment groups (10 mice per group) and a blank vehicle control group (10 mice per group) according to body weight and score. […] The administration was performed once daily for 14 days by gavage at 10 mL/kg. After the administration, the clinical score curve of each animal in each group was analyzed to calculate the area under the curve (AUC). The inhibition rate of each administration group relative to the blank vehicle control was calculated based on the average AUC between groups.
Clinical observation: From 7 days before immunization to 21 days after immunization, the basic health status and weight changes of DBA/1 mice were observed daily (recorded twice a week). After day 22, the health status, disease incidence, and weight changes of the mice were observed daily (recorded every two days) until the end of the experiment.
When mice began to develop symptoms of arthritis (clinical symptoms of arthritis appeared), they were scored on a scale from 0 to 4 based on the severity of the lesions (redness, swelling, joint deformation), with a maximum score of 4 for each limb and a maximum score of 16 for each animal. The scoring was performed at least three times a week.
Pathology: On day 42, mice were euthanized. The two hind limbs of the mice were taken, soaked in 10% formalin solution, decalcified with formic acid solution, embedded in paraffin, sectioned, stained with hematoxylin-eosin (HE), and observed under a microscope. The degree of joint damage was evaluated from four aspects: inflammatory cell infiltration, pannus formation, cartilage damage, and bone resorption, and scored on a scale from 0 to 4.

[3] = tested on: IgM-induced calcium signaling in RAMOS cells; test: Antagonism of IgM-induced calcium signaling in RAMOS cells (FLIPR); format: cell-based; settings: Fluo-4D dye
Experimental: The specific test steps were as follows:
A. Ramos cells (ECACC) were seeded in a 384 experimental plate using cell culture medium (RPMI 1640 medium supplemented with 10% fetal bovine serum) at a density of 5×10^6 cells/mL, 20 μL per well.
C. The cell plate and the compound plate were placed into FLIPR. 10 μL was transferred from the compound plate by the FLIPR instrument and added to the cell plate. The cell plate was removed and incubated in a 37° C. incubator for 1 h.
D. One hour later, 40 μL of Fluo-4D dye (Life Technologies, formulated as 0.5× with 40 mL of HBSS and HEPES buffer) was added to the cell plate and incubated at 37° C. for 50 min.
E. 10 μL of IgM at 8×EC80 concentration was added, and the plate was read using FLIPR.
F. The IC50 results of the compounds were analyzed using EXCEL and Prism statistical software.

[4] = tested on: anti-DNP IgE-induced passive cutaneous anaphylaxis in BALB/c mice; test: Passive cutaneous anaphylaxis (PCA) model in mice induced with anti-DNP IgE; format: in vivo
Description: Passive cutaneous anaphylaxis test, also known as PCA reaction, is a local allergic reaction caused by antibodies that bind to the same or different animal tissues. The PCA animal model in the present disclosure was a passive sensitization model in which IgE binds to specific receptors on skin mast cells. When allergens were stimulated, local mast cells released allergic mediators, thereby increasing local vascular permeability. […] The specific steps were as follows:
The PCA model in mice was induced using anti-DNP IgE. Specifically, BALB/c mice were divided into 9 groups, namely, a normal control group (no administration, injection, or feeding of any solvent), a model group (no administration, injection, or feeding of any solvent), a prednisone group (10 mg/kg, administered for 3 consecutive days, QD (once a day), prednisone concentration of 1 mg/mL, and an administration volume of 10 mL/kg), a cetirizine group (20 mg/kg, administered for 3 consecutive days, QD, cetirizine concentration of 2 mg/mL, and an administration volume of 10 mL/kg), a low-dose group and a medium-dose group for the test substance LOU-064 (15 mg/kg and 45 mg/kg, administered for 3 consecutive days, BID (twice a day), LOU-064 concentrations of 1.5 mg/mL and 4.5 mg/mL, and an administration volume of 10 mL/kg), and a low-dose group, a medium-dose group, and a high-dose group for compound (I) (15 mg/kg, 45 mg/kg, and 90 mg/kg, administered for 3 consecutive days, BID, compound (I) concentrations of 1.5 mg/mL, 4.5 mg/mL, and 9 mg/mL, and an administration volume of 10 mL/kg), with 9 mice in each group, administered by gavage for a total of 4 days. On day 3 of the administration, anti-DNP IgE (Sigma-Aldrich) was injected into the left ears of 8 groups of mice (no normal control group), and the same volume of PBS was injected into the right ears of 8 groups and the left and right ears of the normal control group to allow it to bind to mast cells. Then, 24 hours after the fourth day of anti-DNP IgE injection, a mixed solution of antigen (DNP-HAS, Sigma) and pigment Evan's Blue (Sigma) (0.25 mL/mouse, i.v.) was injected into the tail vein (the normal control group was injected with the same volume of the mixed solution of antigen and pigment Evan's Blue). The antigen reacted with the antibody attached to the mast cells, causing a local allergic reaction, increased local vascular permeability, and pigment penetration into the tissue. The reaction intensity was determined by measuring the local pigment content 30 minutes later. The dye was extracted from the left and right ears, and the absorbance of Evan's blue was measured at a specific wavelength. […] The efficacy effects of each test substances in the PCA animal model were evaluated.

C=CC(=O)Nc1cccc(Nc2nc(Nc3ccc(OCCOC)cc3)ncc2F)c1 [CC-292, reference compound]
inhibition rate (AUC of ankle diameter difference vs blank vehicle control) ([1]; 3 mg/kg once a day by gavage until the 29th day): −0.1% | joint tissue lesions (pathology) ([1]; 3 mg/kg, day 30): more severe | histopathological score compared with the blank vehicle control group ([2]; 3 mg/kg): not significantly different | inflammation inhibition rate (AUC of clinical score vs blank vehicle control) ([2]; 3 mg/kg once daily by gavage for 14 days): 29.1% | pathology of foot joint bone tissue ([2]; 3 mg/kg, day 42): certain inflammation and more bone tissue damage | IC50 [3]: 171 ± 4.03 nM

O=C(O)COCCN1CCN(C(c2ccccc2)c2ccc(Cl)cc2)CC1 (stereo not shown) [Cetirizine, cetirizine, reference compound]
Concentration of Evan's Blue, Left ear, Average value ([4]; 20 mg/kg QD by gavage): 22.70 µg/mL

C=CC(=O)N(C)CCOc1c(N)ncnc1-c1cc(F)cc(NC(=O)c2ccc(C3CC3)cc2F)c1C [LOU-064, reference compound]
Concentration of Evan's Blue, Left ear, Average value ([4]; 15 mg/kg BID by gavage): 24.45 µg/mL | Concentration of Evan's Blue, Left ear, Average value ([4]; 45 mg/kg BID by gavage): 17.24 µg/mL

C[C@]12C=CC(=O)C=C1CC[C@@H]1[C@@H]2C(=O)C[C@@]2(C)[C@H]1CC[C@]2(O)C(=O)CO [Prednisone, prednisone, reference compound]
Concentration of Evan's Blue, Left ear, Average value ([4]; 10 mg/kg QD by gavage): 25.36 µg/mL
